Assay results reported in article PMC4222444, “Characterization of Plp, a phosphatidylcholine-specific phospholipase and hemolysin of Vibrio anguillarum” (BMC Microbiology, 2013).

Target: rPlp (Plp) (Vibrio anguillarum, UniProt Q4ZHV5)
Experiment: TLC with fluorescence scanning of BODIPY-lysophosphatidylcholine formation
Type: biochemical
Details: 20 uM substrate stock mixed 1:1 with enzyme; rPlp routinely 4 ug/ml; no divalent metal needed; labelled compound

Chain of rPlp (Plp) (Q4ZHV5 1-416 limits assumed): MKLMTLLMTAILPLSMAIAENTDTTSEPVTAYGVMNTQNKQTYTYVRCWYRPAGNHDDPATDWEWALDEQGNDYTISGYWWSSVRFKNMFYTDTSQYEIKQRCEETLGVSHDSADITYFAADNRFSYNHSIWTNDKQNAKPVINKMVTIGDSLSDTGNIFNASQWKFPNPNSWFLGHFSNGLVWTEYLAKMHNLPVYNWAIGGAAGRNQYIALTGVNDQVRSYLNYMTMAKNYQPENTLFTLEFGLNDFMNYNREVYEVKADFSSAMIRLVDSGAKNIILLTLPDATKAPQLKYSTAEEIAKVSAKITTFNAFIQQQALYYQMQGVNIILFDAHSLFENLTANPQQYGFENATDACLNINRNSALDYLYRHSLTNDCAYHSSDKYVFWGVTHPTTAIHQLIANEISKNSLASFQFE

CCCCCCCCCC(=O)O[C@H](COCCCCCCCCCCCNC(=O)CCc1ccc2n1[B-](F)(F)[N+]1=C(C)C=C(C)C1=C2)COP(=O)([O-])OCC[N+](C)(C)C [BPC, 2-decanoyl-1-(O-(11-(4,4-difluoro-5,7-dimethyl-4-bora-3a,4a-diaza-s-indacene-3-propionyl)amino)undecyl)-sn-glycero-3-phosphocholine]
TLC with fluorescence scanning of BODIPY-lysophosphatidylcholine formation: rPlp exhibited high activity against phosphatidylcholine, cleaving BPC to yield BLPC and free fatty acid
